Key:
caspase9 = experiment: Western blot of caspase9 in HepG2 cells; format: cell-based; details: Figure 6B
Description: (§1) In subsequent experiments, we further investigated whether NSAIDs could induce STAT3 activation and suppress the expression of caspase9. […] The phosphorylated STAT3 was determined by western blot analysis. […] For STAT3 phosphorylation and caspase9 expression analysis, HepG2 cells were seeded in 6-well plates and then treated with varied compounds in serum-free DMEM media. After 24 h incubation, cells were washed twice with ice-cold phosphate buffered saline (PBS) and lysed in RIPA buffer including 5 mM NaF, 1 mM PMSF, 2 mM NaVO4 and protease inhibitor cocktail. Lysates were then centrifuged at 10,000 rpm for 10 min at 4°and the protein concentrations were determined by BCA assay. Whole cell extracts was resolved on 10% SDS-PAGE and transferred to polyvinylidene fluoride (PVDF) membrane. The membrane was blotted with antibodies against p-STAT3, total-STAT3, caspase9 and GAPDH, and then examined by ECL detection system according to the manufacturer's instructions (Amersham Pharmacia Biotech).

STAT3 = experiment: Western blot of STAT3 phosphorylation in HepG2 cells; format: cell-based; details: Figure 6A
Description: as §1

[1] = molecular target: T1, Farnesoid X Receptor (FXR) (Homo sapiens, UniProt Q96RI1); experiment: Yeast two-hybrid assay, FXR antagonist testing (compounds plus 10 μM CDCA); format: cell-based; details: for IC50: hFXR-LBD/SRC1, determined if inhibition at 10 μM > 50%
T1 construct: Human FXRα-LBD (amino acids 200–473); expressed in transfected cells; host or cells: yeast strain AH109
T1 sequence (Q96RI1 200-472 isoform Q96RI1-2): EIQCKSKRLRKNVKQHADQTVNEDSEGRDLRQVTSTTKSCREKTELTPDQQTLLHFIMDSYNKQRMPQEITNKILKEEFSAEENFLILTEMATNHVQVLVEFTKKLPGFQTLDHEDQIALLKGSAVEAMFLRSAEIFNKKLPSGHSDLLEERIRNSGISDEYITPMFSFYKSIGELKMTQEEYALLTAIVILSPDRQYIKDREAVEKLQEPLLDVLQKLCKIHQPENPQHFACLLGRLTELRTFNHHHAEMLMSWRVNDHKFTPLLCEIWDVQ
Excerpt: (§2) Yeast two-hybrid system is a powerful tool for identifying potential agonist or antagonist of nuclear receptor based on the protein-protein interaction between nuclear receptor and its transcriptional co-activator[34]. Based on the predicted results through our systems pharmacology approach, the yeast two-hybrid system was set up according to a previous study[35] to test whether NSAIDs can modulate the activation of FXR. A series of NSAIDs with diverse chemical structures were collected and experimentally evaluated for their effects on the interaction between FXR and its co-activator SRC1. […] The previous studies reported an immune-mediated mechanism that is related to liver toxicity induced by oxicams and coxibs.
(§3) The yeast expression plasmids pGADT7 and pGBKT7 were from Clontech (Palo Alto, CA). Human FXRα-LBD (amino acids 200–473) was subcloned into vector pGBKT-7 using NdeI and BamHI restrict enzyme sites. The primers used for PCR amplification were listed as follows: FXRα-LBD (sense) 5′-[…]-3′, (anti-sense) 5′-[…]-3′. The combination plasmid pGADT7-SRC1 was prepared as described previously. The luciferase reporter plasmid pGL3-FXRE-Luc was generously donated by Dr. Majlis Hermansson (AstraZeneca R&D Mölndal, Sweden).
(§4) A yeast two-hybrid system for FXRα was constructed by yeast co-transformation with pGBKT7-FXR LBD and pGADT7-SRC1 according to manufacturer's protocols. […] 24 h later, we harvested the yeast cells and analyzed α-galactosidase activity using p-nitrophenyl α-D-galactopyranoside as the substrate.

[2] = molecular target: T1, Farnesoid X Receptor (FXR); experiment: Yeast two-hybrid assay, hFXR agonist testing (FXR-LBD/SRC1 interaction, α-galactosidase); format: cell-based; details: DMSO = 1
Excerpt: as §2, §3, §4

SHP = experiment: qRT-PCR of FXR target gene SHP in HepG2 cells
Description: The mRNA levels of the FXR target genes were quantified by qRT-PCR.
The data were carried out in at least three independent experiments.
HepG2 cells were cultured at 37°C in DMEM media supplemented with 10% FBS. And then cells were seeded into 6-well plates and grew to 80–90% confluence. After incubation with the test compounds for 24 h, cells were harvested and total RNA was isolated using Trizol reagent. The first single-strand cDNA was synthesized using reverse transcriptase kit. The qRT-PCR was performed using Bio-Rad CFX96^TM real time PCR system according to the manufacturer's instruction with specific primers for the FXR target gene SHP (forward 5′-[sequence]-3′, reverse 5′-[sequence]-3′), CYP7A1 (forward 5′- [sequence]-3′, reverse 5′- [sequence]-3′) for detection of the transcripts. Transcription levels were normalized to GAPDH mRNA levels (forward 5′- [sequence]-3′, reverse 5′- [sequence]-3′). The relative RNA quantities were calculated using the comparative threshold cycles (Ct) method. The Ct for the SHP, CYP7A1 and GAPDH signals were determined in triplicate experiments.

inhibition at 10 µM [1]	IC50 ([1]; yeast two hybrid)	FXR activation (10 μM) [2]	Compound	further results
			C[C@H](CCC(=O)O)[C@H]1CC[C@H]2[C@@H]3[C@H](O)C[C@@H]4C[C@H](O)CC[C@]4(C)[C@H]3CC[C@]12C [CDCA, chenodeoxycholic acid]	caspase9 levels on co-treatment with indomethacin (caspase9; co-treated with indomethacin and CDCA): substantially attenuated back to the normal level; effect on indomethacin-induced STAT3 activation (STAT3; CDCA pretreatment): suppresses indomethacin-induced STAT3 activation
93.3%	8.48 µM	1.31	O=C(O)c1cc(-c2ccc(F)cc2F)ccc1O [Diflunisal]	
			COc1ccc2c(c1)c(CC(=O)O)c(C)n2C(=O)c1ccc(Cl)cc1 [Indomethacin]	biological activity on genes SHP and CYP7A1 compared with ibuprofen (SHP): higher biological activity than ibuprofen; caspase9 expression (caspase9; western blot): significantly stimulates caspase9 expression in a dose-dependent manner; STAT3 phosphorylation level (STAT3; western blot): significantly increases the STAT3 phosphorylation level
91.9%	0.7 µM	0.99	CCCCC1C(=O)N(c2ccccc2)N(c2ccccc2)C1=O [Phenylbutazone]	FXR antagonist potency compared with guggulsterones (GS) ([1]; yeast two hybrid): more potent FXR antagonist than guggulsterones
30.7%	> 25 µM	1.13	CN1C(C(=O)Nc2ccccn2)=C(O)c2ccccc2S1(=O)=O [Piroxicam]	
39.9%	> 25 µM	1.18	CS(=O)(=O)c1ccc(C2=C(c3ccccc3)C(=O)OC2)cc1 [Rofecoxib]	

— article PMC4310094, “FXR antagonism of NSAIDs contributes to drug-induced liver injury identified by systems pharmacology approach” (Scientific Reports, 2015)
